Results as given in ChEMBL document CHEMBL2311352, “Discovery of 4-phenyl-2-phenylaminopyridine based TNIK inhibitors” (Bioorg Med Chem Lett, 2013).
Values after ≈ are worked out from the molar mass of the structure shown. Values belong to the compound of their own block, whether it stands above or below them.

Tests used:
[1] = molecular target: T1, TRAF2 and NCK-interacting protein kinase (Homo sapiens, UniProt Q9UKE5); test: Inhibition of TNIK (unknown origin) by ADP glo luminescent assay
Target sequence in this assay (Q9UKE5 whole entry): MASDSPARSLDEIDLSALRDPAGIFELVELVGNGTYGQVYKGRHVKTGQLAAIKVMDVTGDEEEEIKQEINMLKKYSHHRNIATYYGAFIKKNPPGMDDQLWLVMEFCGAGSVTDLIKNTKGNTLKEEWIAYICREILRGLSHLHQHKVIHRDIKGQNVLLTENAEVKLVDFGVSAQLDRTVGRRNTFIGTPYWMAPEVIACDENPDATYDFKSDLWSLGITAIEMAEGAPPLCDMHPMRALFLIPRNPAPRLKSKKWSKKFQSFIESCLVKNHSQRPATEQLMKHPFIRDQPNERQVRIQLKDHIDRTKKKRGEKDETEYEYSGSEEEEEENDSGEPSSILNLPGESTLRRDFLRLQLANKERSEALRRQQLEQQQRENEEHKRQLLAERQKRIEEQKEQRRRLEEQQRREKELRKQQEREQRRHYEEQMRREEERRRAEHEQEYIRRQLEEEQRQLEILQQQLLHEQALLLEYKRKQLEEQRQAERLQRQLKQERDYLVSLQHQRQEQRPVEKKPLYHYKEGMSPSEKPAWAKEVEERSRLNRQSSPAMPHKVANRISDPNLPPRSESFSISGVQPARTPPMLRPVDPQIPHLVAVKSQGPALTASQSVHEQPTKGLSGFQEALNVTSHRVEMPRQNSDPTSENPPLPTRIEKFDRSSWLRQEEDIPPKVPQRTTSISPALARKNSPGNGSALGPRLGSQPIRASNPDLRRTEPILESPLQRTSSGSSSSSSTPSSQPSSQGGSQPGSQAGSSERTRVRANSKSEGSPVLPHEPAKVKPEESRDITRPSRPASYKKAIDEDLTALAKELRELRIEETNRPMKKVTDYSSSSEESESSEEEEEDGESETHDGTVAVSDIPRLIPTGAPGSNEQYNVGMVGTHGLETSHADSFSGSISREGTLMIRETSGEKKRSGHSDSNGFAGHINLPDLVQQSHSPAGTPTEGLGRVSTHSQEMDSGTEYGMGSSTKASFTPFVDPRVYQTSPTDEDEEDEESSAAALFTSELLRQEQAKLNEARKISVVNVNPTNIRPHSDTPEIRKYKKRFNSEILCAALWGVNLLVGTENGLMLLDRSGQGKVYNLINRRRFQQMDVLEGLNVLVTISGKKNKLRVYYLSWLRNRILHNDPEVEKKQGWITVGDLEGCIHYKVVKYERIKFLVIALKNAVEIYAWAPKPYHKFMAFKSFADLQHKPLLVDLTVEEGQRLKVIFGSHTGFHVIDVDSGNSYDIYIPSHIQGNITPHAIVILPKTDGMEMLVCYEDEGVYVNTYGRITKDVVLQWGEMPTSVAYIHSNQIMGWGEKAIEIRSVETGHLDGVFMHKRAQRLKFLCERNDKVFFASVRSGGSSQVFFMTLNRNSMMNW

[2] = molecular target: T1, TRAF2 and NCK-interacting protein kinase; test: Inhibition of TNIK-mediated TCF4/[…] transcription in human HCT116 cells by beta-lactamase reporter gene assay; format: cell-based, HCT-116
Target sequence in this assay (Q9UKE5 whole entry): as above

[3] = molecular target: T1, TRAF2 and NCK-interacting protein kinase; test: Ratio of IC50 for TNIK-mediated TCF4/[…] transcription in human HCT116 cells to IC50 for TNIK (unknown origin); format: cell-based; settings: HCT-116
Target sequence in this assay (Q9UKE5 whole entry, looked up): as the sequence (Q9UKE5 whole entry) above

DLD-1 = test: Cytotoxicity against wnt-activated human DLD1 cells assessed as cell viability; format: functional, cell-based
HeLa = test: Cytotoxicity against wnt-inactivated human HeLa cells assessed as cell viability; format: functional, cell-based
HEK293 = test: Cytotoxicity against wnt-inactivated human HEK293 cells assessed as cell viability; format: functional, cell-based
HCT-116 = test: Cytotoxicity against wnt-activated human HCT116 cells assessed as cell viability; format: functional, cell-based
[4] = molecular target: Voltage-gated inwardly rectifying potassium channel KCNH2 (Homo sapiens, UniProt Q12809); test: Inhibition of human ERG by patch clamp assay
Voltage-gated inwardly rectifying potassium channel KCNH2, sequence (Q12809 whole entry): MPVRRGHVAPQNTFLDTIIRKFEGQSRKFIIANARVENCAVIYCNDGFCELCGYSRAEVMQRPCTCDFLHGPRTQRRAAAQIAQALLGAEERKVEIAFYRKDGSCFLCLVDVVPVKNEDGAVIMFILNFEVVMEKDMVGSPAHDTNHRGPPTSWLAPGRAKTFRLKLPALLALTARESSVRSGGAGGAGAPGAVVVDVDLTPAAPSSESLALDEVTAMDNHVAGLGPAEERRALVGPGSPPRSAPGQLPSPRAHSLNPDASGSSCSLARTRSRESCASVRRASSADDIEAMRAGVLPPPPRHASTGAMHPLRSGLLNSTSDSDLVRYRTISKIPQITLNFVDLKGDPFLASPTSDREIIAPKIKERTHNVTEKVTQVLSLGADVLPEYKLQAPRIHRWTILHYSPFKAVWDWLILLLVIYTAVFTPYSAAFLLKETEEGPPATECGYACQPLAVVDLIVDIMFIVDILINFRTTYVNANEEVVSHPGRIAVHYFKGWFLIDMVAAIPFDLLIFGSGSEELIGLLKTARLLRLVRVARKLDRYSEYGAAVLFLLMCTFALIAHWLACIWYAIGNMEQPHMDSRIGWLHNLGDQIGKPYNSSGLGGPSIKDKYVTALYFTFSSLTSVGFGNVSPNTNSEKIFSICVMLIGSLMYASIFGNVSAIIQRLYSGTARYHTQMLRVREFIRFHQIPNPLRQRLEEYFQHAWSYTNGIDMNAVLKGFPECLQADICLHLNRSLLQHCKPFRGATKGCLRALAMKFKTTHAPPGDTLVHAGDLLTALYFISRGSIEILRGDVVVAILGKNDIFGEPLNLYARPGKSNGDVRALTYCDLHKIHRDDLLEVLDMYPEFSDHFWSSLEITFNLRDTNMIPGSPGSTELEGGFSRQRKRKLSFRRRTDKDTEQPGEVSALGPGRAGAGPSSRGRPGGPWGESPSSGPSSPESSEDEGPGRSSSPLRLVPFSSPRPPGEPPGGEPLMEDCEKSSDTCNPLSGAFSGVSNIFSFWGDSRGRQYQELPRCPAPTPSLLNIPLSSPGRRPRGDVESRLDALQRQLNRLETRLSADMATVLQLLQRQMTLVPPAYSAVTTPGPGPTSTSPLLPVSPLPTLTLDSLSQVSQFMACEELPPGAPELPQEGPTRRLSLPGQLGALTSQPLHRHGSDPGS

[5] = molecular target: T1, TRAF2 and NCK-interacting protein kinase; test: Competitive binding affinity to TNIK (unknown origin) in presence of ATP
Target sequence in this assay (Q9UKE5 whole entry): as the sequence (Q9UKE5 whole entry) above

Caco-2 = test: Ratio of apparent permeability across basolateral to apical side over apical to basolateral side in human Caco2 cells; format: ADME, cell-based
[6] = Solubility of the compound in phosphate buffer at pH 7.4; format: physicochemical
[7] = Apparent permeability across basolateral to apical side in human Caco2 cells; format: ADME, cell-based; settings: Caco-2
[8] = Apparent permeability across apical to basolateral side in human Caco2 cells; format: ADME, cell-based; settings: Caco-2
[9] = molecular target: T1, TRAF2 and NCK-interacting protein kinase; settings: 1 uM
Target sequence in this assay (Q9UKE5 whole entry, looked up): as the sequence (Q9UKE5 whole entry) above

[10] = molecular target: Inhibitor of nuclear factor kappa-B kinase subunit epsilon (Homo sapiens) (UniProt Q14164); test: Inhibition of IKKepsilon (unknown origin) at 1 uM
Inhibitor of nuclear factor kappa-B kinase subunit epsilon (Homo sapiens), sequence (Q14164 whole entry): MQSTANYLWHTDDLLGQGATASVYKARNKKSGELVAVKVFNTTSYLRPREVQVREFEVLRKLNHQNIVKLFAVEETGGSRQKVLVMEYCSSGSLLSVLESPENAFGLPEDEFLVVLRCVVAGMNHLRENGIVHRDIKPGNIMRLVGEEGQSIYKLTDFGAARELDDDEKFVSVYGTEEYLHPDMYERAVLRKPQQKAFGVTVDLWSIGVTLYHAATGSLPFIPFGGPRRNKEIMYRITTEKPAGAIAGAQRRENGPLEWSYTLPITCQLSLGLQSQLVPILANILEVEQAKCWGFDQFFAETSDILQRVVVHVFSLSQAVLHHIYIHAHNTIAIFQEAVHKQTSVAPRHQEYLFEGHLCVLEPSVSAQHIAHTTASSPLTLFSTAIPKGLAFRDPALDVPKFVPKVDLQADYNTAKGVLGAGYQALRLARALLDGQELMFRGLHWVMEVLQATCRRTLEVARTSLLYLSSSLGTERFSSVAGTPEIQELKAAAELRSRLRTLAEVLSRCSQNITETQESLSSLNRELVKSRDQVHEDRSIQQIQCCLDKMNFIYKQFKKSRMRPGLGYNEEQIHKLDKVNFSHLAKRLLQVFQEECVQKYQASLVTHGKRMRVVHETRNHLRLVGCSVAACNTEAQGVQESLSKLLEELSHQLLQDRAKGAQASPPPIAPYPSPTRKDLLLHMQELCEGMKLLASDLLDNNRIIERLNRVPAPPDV

[11] = molecular target: Mitogen-activated protein kinase kinase kinase kinase 4 (Homo sapiens) (UniProt O95819); settings: 1 uM
[12] = molecular target: Serine/threonine-protein kinase Chk1 (Homo sapiens) (UniProt O14757); test: Inhibition of CHK1 (unknown origin) at 1 uM
Serine/threonine-protein kinase Chk1 (Homo sapiens), sequence (O14757 whole entry): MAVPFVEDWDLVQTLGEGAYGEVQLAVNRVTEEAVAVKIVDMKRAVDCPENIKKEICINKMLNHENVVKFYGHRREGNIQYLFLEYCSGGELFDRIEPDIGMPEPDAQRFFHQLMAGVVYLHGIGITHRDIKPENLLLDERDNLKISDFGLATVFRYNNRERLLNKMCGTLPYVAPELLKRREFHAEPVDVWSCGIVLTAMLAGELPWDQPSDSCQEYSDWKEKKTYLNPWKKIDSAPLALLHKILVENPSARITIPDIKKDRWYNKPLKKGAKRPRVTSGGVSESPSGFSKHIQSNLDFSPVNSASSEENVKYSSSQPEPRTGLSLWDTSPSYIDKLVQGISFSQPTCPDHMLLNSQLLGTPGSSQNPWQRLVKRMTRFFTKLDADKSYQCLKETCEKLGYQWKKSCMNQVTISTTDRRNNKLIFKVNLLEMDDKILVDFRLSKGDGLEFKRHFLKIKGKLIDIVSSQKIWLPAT

[13] = molecular target: CDK6/cyclin D1 (Homo sapiens) (UniProt P24385+Q00534); test: Inhibition of CDK6/Cyclin D1 (unknown origin) at 1 uM; format: protein-complex assay
[14] = molecular target: Receptor-type tyrosine-protein kinase FLT3 (Homo sapiens) (UniProt P36888); test: Inhibition of FLT3 (unknown origin) at 1 uM
[15] = molecular target: Macrophage colony-stimulating factor 1 receptor (Homo sapiens) (UniProt P07333); test: Inhibition of FMS (unknown origin) at 1 uM
Macrophage colony-stimulating factor 1 receptor (Homo sapiens), sequence (P07333 whole entry): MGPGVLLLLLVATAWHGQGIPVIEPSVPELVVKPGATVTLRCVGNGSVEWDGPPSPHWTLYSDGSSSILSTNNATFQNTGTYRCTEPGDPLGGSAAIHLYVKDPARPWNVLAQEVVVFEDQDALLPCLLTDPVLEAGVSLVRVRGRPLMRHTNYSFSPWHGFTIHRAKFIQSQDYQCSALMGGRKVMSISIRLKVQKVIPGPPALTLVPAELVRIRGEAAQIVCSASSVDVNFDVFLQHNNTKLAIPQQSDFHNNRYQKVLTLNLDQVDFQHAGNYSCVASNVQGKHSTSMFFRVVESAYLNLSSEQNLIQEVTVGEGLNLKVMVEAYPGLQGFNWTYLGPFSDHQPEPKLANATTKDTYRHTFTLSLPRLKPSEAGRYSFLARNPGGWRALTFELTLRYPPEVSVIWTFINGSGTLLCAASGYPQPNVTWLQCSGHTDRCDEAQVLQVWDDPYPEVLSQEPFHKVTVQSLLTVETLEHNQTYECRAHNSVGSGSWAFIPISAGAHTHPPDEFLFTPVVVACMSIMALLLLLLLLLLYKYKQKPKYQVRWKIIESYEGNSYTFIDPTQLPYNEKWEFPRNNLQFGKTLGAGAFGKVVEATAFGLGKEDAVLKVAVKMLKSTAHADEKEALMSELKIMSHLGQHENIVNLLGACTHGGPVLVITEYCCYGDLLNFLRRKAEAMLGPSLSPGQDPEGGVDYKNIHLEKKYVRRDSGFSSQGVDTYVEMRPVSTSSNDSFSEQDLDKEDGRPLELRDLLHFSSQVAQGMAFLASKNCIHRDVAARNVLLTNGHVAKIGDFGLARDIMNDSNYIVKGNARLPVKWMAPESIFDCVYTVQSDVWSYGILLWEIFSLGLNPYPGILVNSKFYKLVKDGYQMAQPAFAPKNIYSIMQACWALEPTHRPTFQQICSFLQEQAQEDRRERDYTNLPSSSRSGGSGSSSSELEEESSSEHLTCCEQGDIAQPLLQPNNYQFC

[16] = Inhibition of CBP binding to […] in human SW480 cells by immunoblot analysis; format: cell-based

- IC50 [1]: 3 nM
SMILES: COc1ccc(C#N)cc1-c1ccnc(Nc2ccc(N3CCN(C)CC3)c(OC)c2)c1

- IC50 [1]: 63 nM
SMILES: COc1cc(C#N)cc(-c2ccnc(Nc3ccc(N4CCOCC4)c(OC)c3)c2)c1

- IC50 [1]: 5 nM
- IC50 [2]: > 30000 nM
- Ratio IC50 [3]: > 6000
SMILES: COc1ccc(C#N)cc1-c1ccnc(Nc2ccc(N3CCN(C)CC3)cc2)c1

- IC50 [1]: 11 nM
- IC50 [2]: 26000 nM
- Ratio IC50 [3]: 2400
SMILES: COc1ccc(C#N)cc1-c1ccnc(Nc2ccc(N3CCOCC3)cc2)c1

- IC50 [1]: 20 nM
SMILES: COc1ccc(Cl)cc1-c1ccnc(Nc2ccc(CCN3CCOCC3)cc2)c1
- IC50 (DLD-1): 1100 nM
- IC50 (HeLa): 3700 nM
- IC50 (HEK293): 59 nM
- IC50 (HCT-116): 1700 nM

- IC50 [1]: 41 nM
SMILES: COc1ccc(Cl)cc1-c1ccnc(Nc2ccc(N3CCOCC3)c(OC)c2)c1
- IC50 [4]: 20000 nM

- IC50 [1]: > 1000 nM
SMILES: COc1cc(Nc2cc(-c3ccc(C#N)cc3)ccn2)ccc1N1CCOCC1

- IC50 [1]: 118 nM
SMILES: COc1ccc(F)cc1-c1ccnc(Nc2ccc(N3CCOCC3)c(OC)c2)c1

- IC50 [1]: 11 nM
- IC50 [2]: 3100 nM
- Ratio IC50 [3]: 280
SMILES: COc1ccc(C#N)cc1-c1ccnc(Nc2ccc(N3CCC(N(C)C)CC3)c(F)c2)c1
- IC50 (DLD-1): 330 nM
- IC50 (HeLa): 1200 nM
- IC50 (HEK293): 43 nM
- IC50 (HCT-116): 260 nM

- Kd [5]: 220 nM
- IC50 [1]: 290 nM
- Ratio (Caco-2): 0.93
- solubility [6]: 94 µM (≈ 38.9 µg/mL)
- Papp B→A [7]: 19.1 ×10⁻⁶ cm/s
- Papp A→B [8]: 20.5 ×10⁻⁶ cm/s
SMILES: COc1cc(Nc2cc(-c3cccc(CC#N)c3)ccn2)ccc1N1CCN(C)CC1

- IC50 [1]: 6 nM
- inhibition [9]: > 95%
- IC50 [2]: 27000 nM
- inhibition [10]: > 80%
- solubility [6]: 78 µM (≈ 31.2 µg/mL)
- inhibition [11]: > 95%
- inhibition [12]: > 50%
- Papp B→A [7]: 14.2 ×10⁻⁶ cm/s
- inhibition [13]: > 50%
- inhibition [14]: 50%
- Papp A→B [8]: 16 ×10⁻⁶ cm/s
- inhibition [15]: 50%
SMILES: COc1cc(Nc2cc(-c3cccc(C#N)c3)ccn2)ccc1N1CCN(C)CC1

SMILES: COc1ccc(C#N)cc1-c1ccnc(Nc2ccc(N3CCOCC3)c(OC)c2)c1
- IC50 (DLD-1): 5800 nM
- IC50 (HeLa): 6800 nM
- IC50 (HEK293): 105 nM
- IC50 (HCT-116): 2300 nM

- IC50 [16]: 1300 nM
SMILES: O=C1[C@H](Cc2ccc(O)cc2)N2C(=O)CCN(C(=O)NCc3ccccc3)[C@H]2CN1Cc1cccc2ccccc12

- IC50 [1]: 4 nM
- IC50 [2]: 7900 nM
- Ratio IC50 [3]: 2000
SMILES: COc1ccc(Cl)cc1-c1ccnc(Nc2ccc(N3CCN(C)CC3)c(OC)c2)c1

- IC50 [1]: 55 nM
SMILES: COc1cc(Nc2cc(-c3cccc(C#N)c3)ccn2)ccc1N1CCOCC1
- IC50 [4]: 7700 nM

- IC50 [1]: 275 nM
SMILES: COc1ccc(C(F)(F)F)cc1-c1ccnc(Nc2ccc(N3CCOCC3)c(OC)c2)c1
